The molecules below were run against T1, human M4 muscarinic acetylcholine receptor (Homo sapiens, UniProt P08173) (assay: human FLIPR-based M4 PAM assay, CHO-K1 cells stably transfected with human M4 receptor and chimeric G-protein Gαqi5). Settings: inflection point (IP) of dose response curve; acetylcholine added at 20% of maximum response; CHO-K1 human M4/Gαqi5, FLIPR Tetra.
T1 construct: expressed in transfected cells; host or cells: CHO-K1
T1 sequence (P08173 1-479): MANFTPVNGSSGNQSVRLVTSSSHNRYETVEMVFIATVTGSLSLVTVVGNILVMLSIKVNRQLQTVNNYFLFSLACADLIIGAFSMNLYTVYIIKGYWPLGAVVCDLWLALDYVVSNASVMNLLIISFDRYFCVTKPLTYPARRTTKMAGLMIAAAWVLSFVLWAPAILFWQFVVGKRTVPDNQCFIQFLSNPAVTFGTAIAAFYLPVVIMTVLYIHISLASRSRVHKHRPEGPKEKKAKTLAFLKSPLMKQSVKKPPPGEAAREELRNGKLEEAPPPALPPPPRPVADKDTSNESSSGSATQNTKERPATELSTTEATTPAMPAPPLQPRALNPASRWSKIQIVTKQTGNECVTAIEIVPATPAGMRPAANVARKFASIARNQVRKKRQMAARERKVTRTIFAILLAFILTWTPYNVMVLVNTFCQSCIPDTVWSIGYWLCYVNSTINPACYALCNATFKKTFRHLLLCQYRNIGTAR
Format: cell-based
Procedure: In a typical experiment the M4 muscarinic acetylcholine receptor modulating activity of the compounds of the present invention was determined in accordance with the following experimental method. CHO-K1 cells stably transfected with human M4 receptor and chimeric G-protein Gαqi5 (Coward P, et al., Analytical Biochemistry, 270:242-248 (1999)) are thawed from liquid N2 storage, resuspended in growth medium, plated in black, clear bottom 384 well plates, and incubated 16-20 hours at 37° C., 5% CO2. On the day of assay, growth medium is removed, the cells are washed 2 times with wash buffer, and cells are incubated in dye loading buffer at 37° C., 5% CO2 for ˜1 hour. Following dye loading the cell plates are placed in a FLIPR Tetra instrument and while monitoring dye fluorescence (excitation […]), 10 uL of test substance at increasing concentrations is added, and fluorescence values are recorded for 4 min. Next, 10 uL of acetylcholine is added (final concentration calculated so as to achieve 20% of the maximum acetycholine response), and the fluorescence reading is continued for 3.5 min. In some cases, a third addition of acetylcholine (final concentration calculated to achieve 70% of the maximal acetylcholine response) is performed. The resulting dose response curves are fit to a 4 parameter logistic equation and the final result is determined as the inflection point (IP) of the curve
CHO-K1 cells stably transfected with human M4 receptor and chimeric G-protein Gαqi5 are thawed from liquid N2 storage, resuspended in growth medium, plated in black, clear bottom 384 well plates, and incubated 16-20 hours at 37° C., 5% CO2.
On the day of assay, growth medium is removed, the cells are washed 2 times with wash buffer, and cells are incubated in dye loading buffer at 37° C., 5% CO2 for ˜1 h. Following dye loading the cell plates are placed in a FLIPR Tetra instrument and while monitoring dye fluorescence ([…]), 10 uL of test substance at increasing concentrations is added, and fluorescence values are recorded for 4 min. Next, 10 uL of acetylcholine is added (final concentration calculated so as to achieve 20% of the maximum acetycholine response), and the fluorescence reading is continued for 3.5 min. In some cases, a third addition of acetylcholine (final concentration calculated to achieve 70% of the maximal acetylcholine response) is performed.

SMILES | EC50
COc1ccc(OC2CCN(c3nc(OC)ncc3C#N)CC2)cc1 [Example 18, 2-methoxy-4-(4-(4-methoxyphenoxy)piperidin-1-yl)pyrimidine-5-carbonitrile] | 1890 nM
Cc1c(Cl)nc(CO)nc1N1CCC(Oc2ccc3c(cnn3C)c2)CC1 [Example 31, (4-chloro-5-methyl-6-(4-((1-methyl-1H-indazol-5-yl)oxy)piperidin-1-yl)pyrimidin-2-yl)methanol] | 157 nM
Cc1c(Cl)ncnc1N1CCC(Oc2ccc3nn(C)cc3c2)CC1 [Example 66, 5-((1-(6-chloro-5-methylpyrimidin-4-yl)piperidin-4-yl)oxy)-2-methyl-2H-indazole] | 106 nM
Cc1cc(C(=O)NC2C3CC2C3)nnc1N1CCC(Oc2ccc3c(c2)C(=O)N(C)C3)CC1 (stereo not drawn) [Example 157, N-bicyclo[1.1.1]pent-2-yl-5-methyl-6-{4-[(2-methyl-3-oxo-2,3-dihydro-1H-isoindol-5-yl)oxy]piperidin-1-yl}pyridazine-3-carboxamide] | 277 nM
COc1ccc(OC2CCN(c3nnc(C(=O)NC4CCc5ccncc5C4)cc3C)CC2)cn1 (stereo not drawn) [Example 159, 6-{4-[(6-methoxypyridin-3-yl)oxy]piperidin-1-yl}-5-methyl-N-(5,6,7,8-tetrahydroisoquinolin-7-yl)pyridazine-3-carboxamide] | 293 nM
CCOC(=O)c1cc(C)c(N2CCC(Oc3ccc(OC)nc3)CC2)nn1 [Example 105A, ethyl 6-(4-((6-methoxypridin-3-yl)oxy)piperidin-1-yl)-5-methylpyridazine-3-carboxylate] | 170 nM
COc1ccc(OC2CCN(c3nnc(C(=O)NCc4ccncc4)cc3C(F)F)CC2)cn1 [Example 265, 5-(Difluoromethyl)-6-(4-((6-methoxypyridin-3-yl)oxy)piperidin-1-yl)-N-(pyridin-4-ylmethyl)pyridazine-3-carboxamide] | 585 nM
CNC(=O)c1cc(C)c(N2CCC(Oc3ccc(OC)nc3)CC2)nc1C [Example 189, 6-{4-[(6-methoxypyridin-3-yl)oxy]piperidin-1-yl}-N,2,5-trimethylpyridine-3-carboxamide] | 1870 nM
Cc1ncc(C)c(N2CCC(Oc3cccnc3)CC2)n1 [Example 19, 2,5-dimethyl-4-(4-(pyridin-3-yloxy)piperidin-1-yl)pyrimidine] | 2920 nM
COc1ccc(O[C@@H]2CCN(c3nnc(C(=O)N[C@H]4CCc5ncccc5C4)cc3C)C[C@@H]2F)cn1 [Example 138A, 6-((3S,4R)-3-fluoro-4-((6-methoxypyridin-3-yl)oxy)piperidin-1-yl)-5-methyl-N-((S)-5,6,7,8-tetrahydroquinolin-6-yl)pyridazine-3-carboxamide] | 177 nM
COc1ccc(OC2CCN(c3nc(C)ncc3C)CC2)cc1 [Example 69, 4-(4-(4-methoxyphenoxy)piperidin-1-yl)-2,5-dimethylpyrimidine] | 126 nM
Cc1cc(C(=O)NC2CCc3cccnc3C2)nnc1N1CCC(OCC2CC2)CC1 (stereo not drawn) [Example 144, 6-[4-(cyclopropylmethoxy)piperidin-1-yl]-5-methyl-N-(5,6,7,8-tetrahydroquinolin-7-yl)pyridazine-3-carboxamide] | 193 nM
COc1ccc(OC2CCN(c3nnc(C(=O)N[C@@H]4CCc5ccccc5C4)cc3C)CC2)cn1 [Example 165A, (R)-6-{4-[(6-methoxypyridin-3-yl)oxy]piperidin-1-yl}-5-methyl-N-(1,2,3,4-tetrahydronaphthalen-2-yl)pyridazine-3-carboxamide] | 344 nM
COc1ccc(OC2CCN(c3ncnc(-c4ccc(F)cc4)c3C)CC2)cn1 [Example 257, 4-(4-fluorophenyl)-6-(4-((6-methoxypyridin-3-yl)oxy)piperidin-1-yl)-5-methylpyrimidine] | 2700 nM
COc1ccc(OC2CCN(c3nc(C)nc(N)c3C)CC2)cn1 [Example 87, 6-(4-((6-methoxypyridin-3-yl)oxy)piperidin-1-yl)-2,5-dimethylpyrimidin-4-amine] | 1500 nM

Now those with a lower EC50, led by results:

EC50 | SMILES
53 nM | Cc1nc2ccc(O[C@@H]3CCN(c4nc(CO)nc(Cl)c4C)C[C@@H]3F)cc2o1 [Example 52, (4-chloro-6-((3S,4R)-3-fluoro-4-((2-methylbenzo[d]oxazol-6-yl)oxy)piperidin-1-yl)-5-methylpyrimidin-2-yl)methanol]
74 nM | COc1ccc(OC2CCN(c3nnc(C(=O)NCCc4ccccc4)cc3C)CC2)cn1 [Example 196, 6-{4-[(6-methoxypyridin-3-yl)oxy]piperidin-1-yl}-5-methyl-N-(2-phenylethyl)pyridazine-3-carboxamide]
34 nM | Cc1c(Cl)nc(CO)nc1N1CCC(Oc2ccc3c(c2)COC3)CC1 [Example 94, (4-chloro-6-(4-((1,3-dihydroisobenzofuran-5-yl)oxy)piperidin-1-yl)-5-methylpyrimidin-2-yl)methanol]
75 nM | Cc1c(Cl)nc(CO)nc1N1CCC(Oc2cccc(C#N)c2)C(F)(F)C1 (stereo not drawn) [Example 23, 3-((1-(6-chloro-2-(hydroxymethyl)-5-methylpyrimidin-4-yl)-3,3-difluoropiperidin-4-yl)oxy)benzonitrile]
55 nM | COc1ccc(OC2CCN(c3nc(OC)nc(Cl)c3C)CC2)cn1 [Example 227, 4-Chloro-2-methoxy-6-(4-((6-methoxypyridin-3-yl)oxy)piperidin-1-yl)-5-methylpyrimidine]
95 nM | COc1ccc(OC2CCN(c3nnc(C(=O)NCc4ccn[nH]4)cc3C)CC2)cn1 [Example 119, 6-{4-[(6-methoxypyridin-3-yl)oxy]piperidin-1-yl}-5-methyl-N-(1H-pyrazol-5-ylmethyl)pyridazine-3-carboxamide]
66 nM | Cc1ncc(C)c(N2CCC(Oc3ccc4[nH]ncc4c3)CC2)n1 [Example 59, 5-((1-(2,5-dimethylpyrimidin-4-yl)piperidin-4-yl)oxy)-1H-indazole]
35 nM | Cc1cc(C(=O)NCc2ccncc2)nnc1N1CCC(Oc2ccc3[nH]ccc3c2)CC1 [Example 110, 6-[4-(1H-indol-5-yloxy)piperidin-1-yl]-5-methyl-N-(pyridin-4-ylmethyl)pyridazine-3-carboxamide]
101 nM | COc1ccc(OC2CCN(c3nnc(C(=O)NCCc4cn[nH]c4)cc3C)CC2)cn1 [Example 123, 6-{4-[(6-methoxypyridin-3-yl)oxy]piperidin-1-yl}-5-methyl-N-[2-(1H-pyrazol-4-yl)ethyl]pyridazine-3-carboxamide]
57 nM | COc1ccc(OC2CCN(c3nnc(C(=O)NCc4ccccc4Cl)cc3C)CC2)cn1 [Example 195, N-(2-chlorobenzyl)-6-{4-[(6-methoxypyridin-3-yl)oxy]piperidin-1-yl}-5-methylpyridazine-3-carboxamide]
86 nM | COc1ccc(OC2CCN(c3nnc(C(=O)NCc4cnn[nH]4)cc3C)CC2)cn1 [Example 118, 6-{4-[(6-methoxypyridin-3-yl)oxy]piperidin-1-yl}-5-methyl-N-(1H-1,2,3-triazol-5-ylmethyl)pyridazine-3-carboxamide]
27 nM | Cc1c(Cl)nc(CO)nc1N1CCC(Oc2ccc3c(c2)C(=O)CO3)CC1 [Example 91, 5-((1-(6-chloro-2-(hydroxymethyl)-5-methylpyrimidin-4-yl)piperidin-4-yl)oxy)benzofuran-3(2H)-one]
91 nM | COc1ccc(OC2CCN(c3nc(C)nc(C)c3C)CC2)cn1 [Example 104, 4-(4-((6-methoxypyridin-3-yl)oxy)piperidin-1-yl)-2,5,6,-trimethylpyrimidine]
64 nM | COC(=O)c1cc(C)c(N2CCC(Oc3cccc(C#N)c3)CC2)nn1 [Example 58, methyl 6-(4-(3-cyanophenoxy)piperidin-1-yl)-5-methylpyridazine-3-carboxylate]
33 nM | Cc1cc(C(=O)NCc2ccncc2)nnc1N1CCC(Oc2cccc(C#N)c2)CC1 [Example 106, 6-(4-(3-Cyanophenoxy)piperidin-1-yl)-5-methyl-N-(pyridin-4-ylmethyl)pyridazine-3-carboxamide]
